Results from patent US20230000842A1, “METHODS OF TREATING CARTILAGE DISORDERS THROUGH INHIBITION OF CLK AND DYRK” (SAMUMED, LLC, priority 2019, published 2023).

Assays:
[1] = target: CLK2 kinase (Homo sapiens, UniProt P49760); assay: CLK2 kinase activity assay (Z-lyte FRET); assay type: biochemical; conditions: Z-lyte Ser/Thr 6 peptide, 60 μM ATP, 1 h at room temperature;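 note: FRET read-out as coumarin to fluorescein emission ratio, unphosphorylated peptide as 0% and phosphorylated peptide as 100% controls, duplicate reactions, non-linear regression fit of dose-response curves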
CLK2 kinase, sequence (P49760 whole entry): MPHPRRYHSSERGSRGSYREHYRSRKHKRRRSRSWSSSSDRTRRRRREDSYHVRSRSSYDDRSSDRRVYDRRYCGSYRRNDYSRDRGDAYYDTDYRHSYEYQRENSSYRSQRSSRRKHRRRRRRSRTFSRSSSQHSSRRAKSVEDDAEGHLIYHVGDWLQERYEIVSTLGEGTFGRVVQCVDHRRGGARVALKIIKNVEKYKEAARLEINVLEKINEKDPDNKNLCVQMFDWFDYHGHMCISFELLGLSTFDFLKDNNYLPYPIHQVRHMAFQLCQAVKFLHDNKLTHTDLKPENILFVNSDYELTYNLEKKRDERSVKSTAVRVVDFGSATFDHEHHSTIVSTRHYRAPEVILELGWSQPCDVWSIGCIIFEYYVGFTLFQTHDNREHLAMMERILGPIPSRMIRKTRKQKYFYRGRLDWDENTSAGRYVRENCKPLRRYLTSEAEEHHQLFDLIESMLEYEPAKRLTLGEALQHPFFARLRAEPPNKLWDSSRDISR

[2] = target: CLK3 kinase (Homo sapiens, UniProt P49761); assay: CLK3 kinase activity assay (Z-lyte FRET); assay type: biochemical; conditions: Z-lyte Ser/Thr 18 peptide, 156 μM ATP, 1 h at room temperature;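 note: kinase activity read as coumarin/fluorescein emission ratio by FRET, unphosphorylated peptide as 0% and phosphorylated peptide as 100% control, values from non-linear regression of dose-response curves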
CLK3 kinase, sequence (P49761 whole entry): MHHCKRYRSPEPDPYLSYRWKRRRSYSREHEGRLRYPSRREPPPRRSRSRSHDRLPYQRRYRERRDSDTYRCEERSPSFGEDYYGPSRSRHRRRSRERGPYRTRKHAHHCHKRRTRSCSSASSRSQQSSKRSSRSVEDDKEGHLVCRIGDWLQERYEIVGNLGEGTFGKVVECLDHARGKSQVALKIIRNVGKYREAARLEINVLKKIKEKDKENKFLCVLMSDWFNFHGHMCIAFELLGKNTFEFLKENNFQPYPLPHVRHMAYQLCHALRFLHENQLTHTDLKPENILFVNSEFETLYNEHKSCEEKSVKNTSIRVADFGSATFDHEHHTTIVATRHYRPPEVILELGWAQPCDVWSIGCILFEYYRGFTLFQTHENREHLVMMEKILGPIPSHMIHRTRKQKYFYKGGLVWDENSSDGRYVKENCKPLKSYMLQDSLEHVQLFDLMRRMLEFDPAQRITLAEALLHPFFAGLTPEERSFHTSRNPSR

[3] = tested on: MMP-3 levels in supernatant of chondrocytes stimulated with IL1-β; assay: Chondrocyte protection assay compound screening (MMP-3 LANCE Ultra); assay type: cell-based, human; conditions: Homo sapiens, Chondrocyte, IL1-β 10 ng/mL overnight, 11-point curves from 3 μM to 0.05 nM; for Emax: read-out: Maximum % Inhibition
Description: Human Chondrocyte Cell Culture: Primary human chondrocytes were purchased from Lonza (Walkersville, Md.) and expanded in Chondrocyte Growth Media (CGM, Lonza). Cells between passage 2 and 5 were used for the experiments.
Chondrocytes were plated at 8,000 cells/well in 40 μL/well Chondrocyte Differentiation Medium (Lonza; 500 mL Basal Medium, 25 mL FBS, 0.5 mL GA-1000, 1 mL R3-IGF, 2.5 mL bFGF, 0.5 mL Transferrin, and 1 mL Insulin). After 2 hours of incubation at 37° C. and 5% CO2, IL1-β (Peprotech, Rocky Hill, N.J.) was added to a final concentration of 10 ng/mL. 11 wells in 1 row were left unstimulated for normalization and calculating EC50 values. Cells were incubated at 37° C. and 5% CO2 overnight. Assay plates are spun, 25 μl of supernatant media was collected using (S2 pipettor, Apricot Designs). Cells were lysed using 10 μL of (Cell Titer-Glo, Promega). Luminescent signal detected using an En Vision Multilabel reader (Perkin Elmer). MMP-3 levels were measured in supernatant. Supernatant diluted 1:7 in DMEM. MMP-3 levels in the supernatant were measured using MMP-3 LANCE Ultra detection kit (Perkin Elmer). Briefly, 5 μL of diluted supernatant was transferred to low-volume 384 well plates using (S2 pipettor, Apricot Designs). A standard curve was prepared using MMP-3 analyte (range […]). 1.7 μL of 8× mix of Eu-labelled anti-MMP-3 antibody and ULight labelled anti-MMP-3 antibody was added to the plates using Mantis Liquid handler (Formulatrix). Plates were incubated overnight at room temperature. LANCE signal was detected using an EnVision Multilabel reader (Perkin Elmer), equipped with TR-FRET using excitation wavelength of 320 nm and two emission wavelengths of 615 nm and 665 nm. Data was analyzed according to the kit protocol, using the ratio of […] and the standard curve values were used to calculate the amount of MMP3 in the […] (in pg/ml). The normalized averages (fold change over IL1-β stimulated) for each compound concentration were calculated. EC50 and maximum % inhibition values were calculated using the dose-response nonlinear regression curve-fit in Dotmatics.

[4] = tested on: primary human mesenchymal stem cells (hMSCs); assay: Chondrogenesis screening using primary human mesenchymal stem cells; assay type: cell-based; conditions: Homo sapiens, Mesenchymal stem cells, hMSC chondrogenesis; maximum activity relative to TGF-β3 (10 ng/mL) positive control; read-out: Max. Activity as % TGF-β3 activity
Summary of the method: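 Primary hMSCs at passage 3–6 were treated across compound concentrations, with TGF-β3 as positive control. Chondrogenic nodule area per well was normalized to 3 DMSO wells on the same plate (fold over DMSO, 2–3 replicates). EC50, maximum activity and the dose reaching it were derived.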

[5] = tested on: Wnt pathway activity (SW480 colon carcinoma cells stably expressing the Sp5-Luc reporter); assay: Wnt pathway activity screening assay (Sp5-Luc reporter gene assay); conditions: Homo sapiens, SW480, Table 4; SW480 cells stably expressing Sp5-Luc reporter, 10-point dose-response from 10 μM, 36 to 48 hours

Row | Compound | EC50 [1] | EC50 [2] | EC50 [5] | EC50 [3] | Emax [3] | Emax [4]
1 | Cn1cc(-c2ccc3cnc(NC(=O)C4=CNC5C=CC=CC5=C4)cc3c2)cn1 (stereo not shown) [compound 559] | 4 nM | 66 nM | – | 19.1 nM | 41.2% | –
2 | Cn1cc(-c2ccc3cnc(NC(=O)c4ccc5cnccc5c4)cc3c2)cn1 [compound 560] | 4 nM | 85 nM | – | ≥ 3000 nM | 63.6% | –
3 | CN1CCN(c2cc(C(=O)Nc3cc4cc(-c5cnn(C6CC6)c5)ccc4cn3)ccn2)CC1 [compound 565] | 6 nM | 71 nM | – | 12.2 nM | 76.6% | –
4 | Cn1ncc(-c2ccc3cnc(NC(=O)c4ccc(OC(F)F)cc4)cc3c2)c1CO [compound 567] | 8 nM | 261 nM | – | 1370 nM | 69.8% | –
5 | CN1CCN(c2ccc(C(=O)Nc3cc4cc(-c5cnn6c5CN(CCF)CC6)ccc4cn3)cn2)CC1 [compound 576] | 2 nM | 81 nM | – | ≥ 3000 nM | 62.6% | –
6 | Cc1ncc(-c2ccc3cnc(NC(=O)c4ccc(OC(C)C)cc4)cc3c2)n1C [compound 588] | 2 nM | 70 nM | – | 10.5 nM | 74.7% | –
7 | Cc1nnc(-c2ccc3cnc(NC(=O)c4ccnc(N(C)C5CCN(C)CC5)c4)cc3c2)s1 [compound 595] | – | 19 nM | – | 2.7 nM | 86.2% | 25.7%
8 | CC(F)(F)CN1CCC(C(=O)Nc2cc3cc(-c4cnco4)cnc3cn2)CC1 [compound 642] | 9780 nM | – | > 10000 nM | ≥ 3000 nM | 29.5% | –

The next lines start with results.

Row | EC50 [1] | EC50 [2] | EC50 [5] | Compound | EC50 [3] | Emax [3] | Emax [4]
9 | – | 34 nM | – | CN1CCN(c2cc(C(=O)Nc3cc4cc(-c5cnn(C)c5N)ccc4cn3)ccn2)CC1 [compound 566] | 11.5 nM | 43.8% | –
10 | 3 nM | 44 nM | – | CN1CCC2(CC1)CN(c1cc(C(=O)Nc3cc4cc(-c5cnn(C)c5CO)ccc4cn3)ccn1)C2 [compound 568] | ≥ 3000 nM | 42.7% | –
11 | 2 nM | 8 nM | – | Cn1ncc(-c2ccc3cnc(NC(=O)c4ccnc(N5CCOCC5)c4)cc3c2)c1CN1CCOCC1 [compound 573] | ≥ 3000 nM | 70% | –
12 | – | 48 nM | – | CN1CCc2cc(C(=O)Nc3cc4cc(-c5cn(C)nn5)ccc4cn3)ccc2C1 [compound 578] | ≥ 3000 nM | 37.6% | –
13 | 2 nM | 18 nM | – | Cn1cncc1-c1ccc2cnc(NC(=O)c3ccnc(N4CCN(C5CC5)CC4)c3)cc2c1 [compound 582] | ≥ 3000 nM | 52.2% | –
14 | 2 nM | 27 nM | – | CN1Cc2ccc(C(=O)Nc3cc4cc(-c5cncn5C)ccc4cn3)cc2C1 [compound 583] | ≥ 3000 nM | 67.5% | –
15 | 4 nM | 40 nM | – | NC1CN(c2cc(C(=O)Nc3cc4cc(-c5cnco5)ccc4cn3)ccn2)C1 [compound 590] | ≥ 3000 nM | 33.2% | –
16 | – | 20 nM | – | CN1CCN(c2cc(C(=O)Nc3cc4cc(-c5cncs5)ccc4cn3)ccn2)CC1 [compound 591] | 423 nM | 100% | 22.3%
17 | 2 nM | 43 nM | – | O=C(Nc1cc2cc(-c3cncs3)ccc2cn1)c1ccc2c(c1)CNCC2 [compound 592] | ≥ 3000 nM | 29.7% | –
18 | 3 nM | 22 nM | – | CN1CCN(c2cc(C(=O)Nc3cc4cc(-c5cnc(N)s5)ccc4cn3)ccn2)CC1 [compound 593] | 0.4 nM | 62.9% | –
